# Tests used:
# tobacco BY-2 cells [1] = test: Nicotine alkaloid accumulation in methyl jasmonate elicited BY-2 cells (GC-MS); format: cell-based, Nicotiana tabacum
# Method: (§1) Nicotiana tabacum BY-2 cells were cultured in modified Linsmaier-Skoog (LS) medium (Linsmaier & Skoog, 1965), as described by Nagata & Kumagai (1999). First, the growth curve of BY-2 cell culture was determined (FIG. 2) and the late exponential phase was used in elicitation experiments. Since the ability of high auxin concentration to inhibit the biosynthesis of nicotine is well known (Hibi et al., 1994; Ishikawa, et al., 1994), the six-day-old culture was prior elicitation washed and diluted 10-fold with fresh hormone free medium. After 12 hours, the cells were treated with methyl jasmonate (MeJA). MeJA (cis-form, Duchefa M0918) dissolved in dimethyl sulfoxide (DMSO) and was added to the culture medium at a final concentration of 50 μM. Same amount of DMSO alone served as a control. Samples for cDNA-AFLP analysis were taken at 0, 1, 2, 3, 4, 5, 6, 7, 8, 9, 10, 11, 12, 13, 14, 15, 16, 18, 20, 24, 36, 48, and 98 hours after jasmonate addition or at 0, 2, 4, 6, 8, 10, 12, 14, 16, 24, 36, 48, and 98 hours after DMSO addition, respectively. For alkaloid analysis, the samples were taken at 0, 12, 14, 24, 48 and 98 hours. Three replicate shake flasks pooled together yielded the total culture volume of 75 ml. After filtering (Miracloth) under vacuum the cells were lyophilized. Lyophilized cell samples were extracted for GC-MS analysis by a modified method described by Furuya et al. (1971). Cells were weighed and 25 μg of internal standard (5α-cholestan) was added. The samples were made alkaline with ammonia (10% (v/v), 1 ml) and water (2 ml) was added. Alkaloids were extracted by vortexing with 2 ml of dicloromethane. After 30 min the samples were centrifuged (2000 rpm, 10 min) and the lower organic layer was separated and transferred into glass vials. The samples were concentrated to 50 μl and 3 μl aliquots were injected to GC-MS. In some cases (for derivatization of free fatty acids and more polar compounds) the samples were silylated prior to GC-MS analysis. After evaporation to dryness, 25 μl of dichloromethane was added and silylation was performed by N-methyl-N-(trimethylsilyl)-trifluoro-acetamide (Pierce, Rockford, USA) at 120° C. for 20 min.
# [2] = system: BY-2 reporter cell line (line 7); test: Nicotine alkaloid content of BY-2 reporter cell line super-transformed with C330; format: cell-based, Nicotiana tabacum; details: line 7 + C330 vector, −2,4D + MeJA
# Method: In a next step, we evaluated if there was a correlation between the GUS-activity in the BY-2 reporter cell line and nicotine alkaloid accumulation. […] Measurements in tables 6A and 6B were carried out in the presence or absence of synthetic auxins. “−2,4 D” means in the absence of dichlorophenoxy-acetic acid. “NAA” means in the presence of alfa-naphtalene-acetic acid. “DW” means dry weight, “MeJA” is with the addition of the elicitor methyl jasmonate, “DMSO” means with the addition of dimethylsulfoxide instead of MeJA.
# as §1
# NsPMT2 promoter = NsPMT2 promoter EGFP-GUS reporter in transgenic BY-2 cell line 7 (GUS activity); format: cell-based, Nicotiana sylvestris
# From the text: The PMT gene encodes the enzyme putrescine N-methyltransferase, catalysing the first committed step in the production of nicotinic alkaloids. Transcripts of Nicotiana sp. PMT genes are reported to be up regulated by methyl jasmonate. […] We have applied this knowledge and constructed a new reporter construct, called pHGWFS7-ppmt2, harbouring a EGFP-GUS fusion reporter gene (in Gateway® vector pHGWFS7; Karimi et al., Trends Plant Sci. 2002, 7(5):193-195), driven by the NsPMT2 promoter. To this end, primers were designed for the Adapter attB PCR protocol (InVitroGen) to amplify the NsPMT2 5′flanking region covering nucleotides −1713 to +3 (Table 3).
# The pHGWFS7-ppmt2 construct was subsequently introduced in the ternary Agrobacterium tumefaciens transformation system, LBA4404.pBBR1-MCS-5.virGN54D (van der Fits et al., Plant Mol. Biol. 2000, 43(4):495-502), allowing efficient transformation of tobacco BY-2 cell cultures. Different independent transgenic lines were established and the jasmonate inducibility of the promoter in these transgenic BY-2 cells was confirmed (Table 4).
# To illustrate the potential of this approach, BY-2-pmt2 cell line 7 was double transformed with the pK7WGD2-C330 construct, harbouring the MJM tag with SEQ ID No 148, an AP2-domain transcription factor encoding gene (also designated as C330 in this application), driven by the constitutive p35S promoter.
# tobacco BY-2 cells [3] = test: cDNA-AFLP transcript profiling of jasmonate-elicited BY-2 cells; format: cell-based, Nicotiana tabacum; details: 50 μM methyl jasmonate vs DMSO-treated cells, approximately 20,000 tags analyzed
# Method: Total RNA was prepared by LiCl precipitation (Sambrook, 1989). Starting from 5 μg total RNA, first-strand cDNA was synthesized by reverse transcription with a biotinylated oligo-dT25 primer (Genset, Paris, France) and Superscript II (Life Technologies, Gaithersburg, Md.). Second-strand synthesis was performed by strand displacement with Escherichia coli ligase (Life Technologies), DNA polymerase I (USB, Cleveland, Ohio) and RNAse-H (USB).
# 500 nanograms of double-stranded cDNA was used for AFLP analysis as described (Vos et al., 1995; Bachem et al., 1996) with modifications. The restriction enzymes used were BstYI and MseI (Biolabs) and the digestion was performed in two separate steps. […]
# Scanned gel images were quantitatively analyzed using the AFLP QuantarPro image analysis software (Keygene N. V., Wageningen, N L). This software was designed for accurate lane definition, fragment detection, and quantification of band intensities. All visible AFLP fragments were scored and individual band intensities in each lane were measured. […] The correction factors were calculated based on constant bands throughout the time course. […] A coefficient of variation (CV) was calculated by dividing […]. […]
structure (smiles),measurement,setting,value
"CC/C=C\CC1C(=O)CCC1CC(=O)OC (centres unmarked) [MeJA, methyl jasmonate]","nicotine, anabasine, anatalline and anatabine content",tobacco BY-2 cells [1]; BY-2 cells elicited vs control samples,marked increase
same,highest concentration of anatabine,"tobacco BY-2 cells [1]; BY-2 cells, 50 μM MeJA",800 µg/g (d.w.)
same,maximum concentration of nicotine relative to anatabine (dry weight basis),"tobacco BY-2 cells [1]; BY-2 cells, 50 μM MeJA",4%
same,start of anatabine accumulation after elicitation,"tobacco BY-2 cells [1]; BY-2 cells, 50 μM MeJA",24 h
same,start of nicotine accumulation after elicitation,"tobacco BY-2 cells [1]; BY-2 cells, 50 μM MeJA",14 h
same,time after which anabasine and two anatalline isomers increased,"tobacco BY-2 cells [1]; BY-2 cells, 50 μM MeJA",48 h
same,Anatabine,[2]; 0 h,0.038 mg/g DW
same,Nicotine,[2]; 0 h,0.008 mg/g DW
same,Anabasine,[2]; 24 h,0.099 Mg/g DW
same,Anatabine,[2]; 24 h,2.065 mg/g DW
same,Nicotine,[2]; 24 h,0.271 mg/g DW
same,Anabasine,[2]; 48 h,0.297 Mg/g DW
same,Anatabine,[2]; 48 h,3.541 mg/g DW
same,Nicotine,[2]; 48 h,0.283 mg/g DW
same,GUS activity,"NsPMT2 promoter; BY-2 cell line 7, +MeJA, 0 h (Table 4)",0.8 ± 1.0 units/mg protein/minute
same,GUS activity,"NsPMT2 promoter; BY-2 cell line 7, +MeJA, 4 h (Table 4)",2.0 ± 0.3 units/mg protein/minute
same,GUS activity,"NsPMT2 promoter; BY-2 cell line 7, +MeJA, 8 h (Table 4)",6.4 ± 0.3 units/mg protein/minute
same,GUS activity,"NsPMT2 promoter; BY-2 cell line 7, +MeJA, 14 h (Table 4)",29.1 ± 1.9 units/mg protein/minute
same,GUS activity,"NsPMT2 promoter; BY-2 cell line 7, +MeJA, 24 h (Table 4)",92.2 ± 6.4 units/mg protein/minute
same,GUS activity,"NsPMT2 promoter; BY-2 line 7, +MeJA, 0 h (Table 5)",0.0 ± 0.0 units/mg protein/minute
same,GUS activity,"NsPMT2 promoter; BY-2 line 7, +MeJA, 24 h (Table 5)",399.0 ± 56.4 units/mg protein/minute
same,GUS activity,"NsPMT2 promoter; BY-2 line 7, +MeJA, 48 h (Table 5)",663.0 ± 33.6 units/mg protein/minute
same,GUS activity,"NsPMT2 promoter; BY-2 line 7-C330, +MeJA, 0 h",1.0 ± 0.1 units/mg protein/minute
same,GUS activity,"NsPMT2 promoter; BY-2 line 7-C330, +MeJA, 24 h",276.7 ± 55.9 units/mg protein/minute
same,GUS activity,"NsPMT2 promoter; BY-2 line 7-C330, +MeJA, 48 h",347.8 ± 2.0 units/mg protein/minute
same,differential transcript tags,tobacco BY-2 cells [3],591

# — patent US20060041962A1, “Genes and uses thereof to modulate secondary metabolite biosynthesis” (priority 2002, published 2006)
